We go through two compounds from patent US10561616B2, “Sustained release dosage forms for a JAK1 inhibitor” (Incyte Corporation, priority 2013, dated 2020).

Each structure is given as a SMILES string. Where only a bound is given, the exact number is not on record here.

One experiment concerns RA. To be noted: 5 mg BID; 3 months; cited from earlier work.
A further experiment concerns psoriasis. To be noted: 5 mg; 12 weeks; cited from earlier work.
Experiment [1] relates to patients with plaque psoriasis. Put plainly: Placebo controlled study in plaque psoriasis, 28 days (sPGA, PASI 50). It is filed as in vivo, human. The protocol: A double-blind (sponsor unblinded), randomized, placebo controlled study was conducted in approximately 48 subjects treated for 28 days. Eligibility requirements included: active plaque psoriasis for at least 6 months at screening; body surface area (BSA) of plaque psoriasis of ≥5%; psoriasis area and severity index (PASI) score of ≥5; static physician's global assessment (sPGA) score of ≥3; inadequate response to topical therapies; innovative design allowing rapid progress between doses, with conservative safety assessment. […] Once the 4th subject (block of 3 active 1 PBO) completed 28 days administration without a Grade 3 or higher AE, the next group of 12 subjects initiated treatment with the next highest dose; while the first 4 subjects in this group are treated for 28 days, the 1st group is filled 60 subjects with moderate to severe psoriasis were randomized. […] A sequential method of recruitment was used, increasing from the lowest dose to the highest, each after the completion of 28 days for the first four subjects in the previous dose. The results at 28 days are show in Table 8 (PASI 50 is Psoriasis Area and Severity Index). […] The 5 mg tofacitinib dose is the approved dosage level for RA for safety reasons in the US.

Experiment [2] deals with T1, human JAK1 (a.a. 837-1142) (Homo sapiens, UniProt P23458).
T1 construct: human JAK1 (a.a. 837-1142); His tag (N); made in house; host or cells: insect cells (baculovirus)
Put plainly: In vitro JAK kinase assay (HTRF), JAK1. Format: biochemical. To be noted: measured at 1 mM ATP. The protocol: The compound of Formula I herein was tested for inhibitory activity of JAK targets according to the following in vitro assay described in Park et al., Analytical Biochemistry 1999, 269, 94-104. The catalytic domains of human JAK1 (a.a. 837-1142) and JAK2 (a.a. 828-1132) with an N-terminal His tag were expressed using baculovirus in insect cells and purified. The catalytic activity of JAK1 and JAK2 was assayed by measuring the phosphorylation of a biotinylated peptide. The phosphorylated peptide was detected by homogenous time resolved fluorescence (HTRF). IC50s of compounds were measured for each kinase in the 40 microL reactions that contain the enzyme, ATP and 500 nM peptide in 50 mM Tris (pH 7.8) buffer with 100 mM NaCl, 5 mM DTT, and 0.1 mg/mL (0.01%) BSA. For the 1 mM IC50 measurements, ATP concentration in the reactions was 1 mM. Reactions were carried out at room temperature for 1 hr and then stopped with 20 μL 45 mM EDTA, 300 nM SA-APC, 6 nM Eu-Py20 in assay buffer (Perkin Elmer, Boston, Mass.). Binding to the Europium labeled antibody took place for 40 minutes and HTRF signal was measured on a Fusion plate reader (Perkin Elmer, Boston, Mass.).
Background: TR-FRET usually uses a lanthanide donor and a delayed reading to cut background.

A further experiment relates to JAK1 (IL-6). Nature of the experiment: PK derived JAK1 (IL-6) inhibition by dose regimen. An excerpt: (§1) It is believed that this efficacy/side-effect profile may be due to the QD dose achieving maximal JAK1 signaling (tied to efficacy) with low JAK2 inhibition at the trough, as JAK2 signaling is tied to hematopoiesis. This hypothesis is supported by the PK derived JAK1 (IL-6) and JAK2 (TPO) inhibition data for the compound of Formula at various doses (Table 7).

For a further experiment, the system named is JAK2 (TPO). Nature of the experiment: PK derived JAK2 (TPO) inhibition by dose regimen.
Description: as §1

T1 sequence (P23458 849-1154): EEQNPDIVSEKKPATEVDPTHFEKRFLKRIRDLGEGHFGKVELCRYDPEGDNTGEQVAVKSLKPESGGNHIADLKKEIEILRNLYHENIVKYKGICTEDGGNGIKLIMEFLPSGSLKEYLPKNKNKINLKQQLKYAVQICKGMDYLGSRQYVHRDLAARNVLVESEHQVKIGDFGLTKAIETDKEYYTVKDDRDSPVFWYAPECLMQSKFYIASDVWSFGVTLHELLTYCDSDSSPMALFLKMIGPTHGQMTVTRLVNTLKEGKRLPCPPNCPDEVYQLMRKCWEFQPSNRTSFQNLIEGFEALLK

As to `C[C@@H]1CCN(C(=O)CC#N)C[C@@H]1N(C)c1ncnc2[nH]ccc12.O=C(O)CC(O)(CC(=O)O)C(=O)O` [tofacitinib citrate], in the experiment on RA, the ACR20 is recorded as 59%, the ACR50 is 31% and the ACR70 is listed as 15%. The “PASI 50 score” value in the experiment with psoriasis was 65.3%.

Take `N#CCC1(n2cc(-c3ncnc4[nH]ccc34)cn2)CN(C2CCN(C(=O)c3ccnc(C(F)(F)F)c3F)CC2)C1` [compound of Formula I, {1-{1-[3-fluoro-2-(trifluoromethyl)isonicotinoyl]piperidin-4-yl}-3-[4-(7H-pyrrolo[2,3-d]pyrimidin-4-yl)-1H-pyrazol-1-yl]azetidin-3-yl}acetonitrile]: the “% PASI 50” value was found to be 22.2% in experiment [1] (100 mg BID (as headed)), 44.4% in experiment [1] (200 mg BID), 66.7% in experiment [1] (200 mg QD) and 81.8% in experiment [1] (600 mg QD). For the same compound, the “% sPGA (clear or minimal)” value in experiment [1] (100 mg BID (as headed)) was found to be 11.1%; in experiment [1] (200 mg BID), 33.3%; in experiment [1] (200 mg QD) it was 22.2%; in experiment [1] (600 mg QD) it was 45.5%. Further, the “Mean % change sPGA” value was −22.2% in experiment [1] (100 mg BID (as headed)), −35.2% in experiment [1] (200 mg BID), −29.4% in experiment [1] (200 mg QD) and −42.4% in experiment [1] (600 mg QD). The compound also returned an IC50 in experiment [2] of no more than 5 nM. Moreover, the “Average IL-6 inhibition” value in the experiment on JAK1 (IL-6) (100 mg BID) came to 44%; with JAK1 (IL-6) (100 mg QD), 30%; in the experiment with JAK1 (IL-6) (200 mg BID), 64%; with JAK1 (IL-6) (200 mg QD), 39%; in the experiment on JAK1 (IL-6) (300 mg QD), 47%; in the experiment with JAK1 (IL-6) (400 mg BID) it was 69%. For the same compound, in the experiment with JAK1 (IL-6) (600 mg QD), the “Average IL-6 inhibition” value stood at 61%. For the same compound, the “Trough IL-6 inhibition” value with JAK1 (IL-6) (100 mg BID) came out at 22%; with JAK1 (IL-6) (100 mg QD) it was 7%; in the experiment with JAK1 (IL-6) (200 mg BID), 52%; in the experiment on JAK1 (IL-6) (200 mg QD) it was 11%; in the experiment on JAK1 (IL-6) (300 mg QD), 16%; in the experiment with JAK1 (IL-6) (400 mg BID) it was 56%. In the experiment on JAK1 (IL-6) (600 mg QD), the “Trough IL-6 inhibition” value stood at 31%. Also, the “Average TPO inhibition” value in the experiment on JAK2 (TPO) (100 mg BID) was 11%; with JAK2 (TPO) (100 mg QD), 7%; in the experiment on JAK2 (TPO) (200 mg BID), 24%; with JAK2 (TPO) (200 mg QD) it was 11%; with JAK2 (TPO) (300 mg QD), 18%; with JAK2 (TPO) (400 mg BID) it was 33%. For the same compound, the “Average TPO inhibition” value in the experiment with JAK2 (TPO) (600 mg QD) turned out to be 36%. For the same compound, the “Trough TPO inhibition” value is given as 2% with JAK2 (TPO) (100 mg BID); less than 1% in the experiment with JAK2 (TPO) (100 mg QD); 13% in the experiment on JAK2 (TPO) (200 mg BID); less than 1% with JAK2 (TPO) (200 mg QD); 1% with JAK2 (TPO) (300 mg QD); 16% in the experiment with JAK2 (TPO) (400 mg BID). For the same compound, in the experiment on JAK2 (TPO) (600 mg QD), the “Trough TPO inhibition” value stood at 4%.

One may read the IC50 as the point on the concentration scale where inhibition reaches its midpoint.
